For 89 compounds, melting point results are on record in a melting point compilation (Tetko et al.; mined from patent text by program, amines drawn as free bases though some values may be those of a salt).

Structures are written as SMILES.

In general, melting point refers to the temperature, or range, at which the solid turns liquid. Compound `CC(C)(CCCCCCCCCCC(C)(C)C(Cl)C(=O)O)C(Cl)C(=O)O` (centres undefined) showed a melting point of 103 to 112 °C.

The compound `O=C(O)c1nc2c(=O)[nH]c3cc(C(F)(F)F)ccc3n2c1CBr` displayed a melting point greater than 250 °C.

As to `CCC(O)c1cc2cc(OCC(=O)O)c(Cl)c(Cl)c2s1` (centres undefined), the melting point is 156 to 158 °C.

With `Cc1cc2c(c(C(C)(C)C)c1)OC(=O)C2Cl` (centres undefined), the melting point is 81 to 86 °C.

In turn, `Nc1ccn(C2OC(CO)C(O)C2O)c(=O)c1Cl` (centres undefined) had a melting point of 197 to 199 °C.

On to `CC1(C)CCC2=C1CCC1C3CC(C#N)C(=O)C=C3CCC21` (centres undefined), for which the melting point is 163 to 165 °C.

Take `CCCCCCC(=O)C=Cc1ccc(O)c(O)c1`: the melting point was 114 to 115 °C.

On to `COC(=O)c1cccc(NC(=O)c2ccccc2)c1O`, for which the melting point is 105 °C.

`COc1cc2c(c3c1OC(C)(C)C3)C(c1cccc(N3CCNC3=O)c1)=NC(C)(C)C2`: the melting point was in the range of 225 to 227 °C.

Compound `Cc1c(C#N)c(N)n(-c2ccccc2Br)c1C` registered a melting point of 233 to 235 °C.

On to `CCN(CC)CCOc1ccc(-c2oc3ccccc3c2C(=O)c2cc(C)c(OC)c(C)c2)cc1`, for which the melting point is 130 to 133 °C.

Compound `Cc1nc(C(=O)O)c(OCc2ccccc2)c(=O)n1C` had a melting point of 180 to 181 °C.

Compound `COc1ccc(C(=O)Nc2c(Cl)cncc2Cl)c2[nH]cnc12` showed a melting point of 292 to 293 °C.

Regarding `O=C(CCN1CCNC1=O)N1CCC(C2c3ncc(Br)cc3CCc3cc(Cl)cc(Br)c32)CC1` (single isomer, unassigned; (+)), the melting point lay within 202 to 203 °C.

In turn, `CCCOc1c(OC)cc(C(C#N)CCC(C#N)c2cc(OC)c(OC)c(OC)c2)cc1SC` (centres undefined) registered a melting point of 131 to 132 °C.

`CCCCn1c(CCC)cc(=O)c(C(=O)Nc2ccccc2)c1CCC` had a melting point of 134 to 136 °C.

In turn, `CCOC(=O)c1nc2ccccc2nc1CC` returned a melting point of 53 to 54 °C.

Turning to `CC12CCC(O)CC1CCC1C2CCC2(C)C(=O)CCC12F` (centres undefined), the melting point fell in the range of 201 to 202 °C.

Compound `O=C(CC(=O)c1ccc(F)cc1)c1ccc(F)cc1` came in with a melting point of 70 to 72 °C.

`NC(=O)c1ccc(-c2cnc3c(c2)N(Cc2ccccc2)C(=O)CN3)cc1`: the melting point was greater than 200 °C.

`O=C(c1ccc(C(F)(F)F)cc1)N1CCC(=Cc2ccc(C3=NCCO3)cc2)CC1` registered a melting point of 142 °C.

For the compound `CCc1ccc(C(=O)Nc2ccccc2O)cc1`, the melting point lay in the range of 103 to 105 °C.

Compound `CN(c1cccc2cc(C3=NCC(CCN)S3)[nH]c12)S(=O)(=O)c1cccs1` (centres undefined) yielded a melting point of 172 to 174 °C.

Consider `COC(=O)c1ccc(NC(=O)OCc2ccccc2)c(Cl)c1`, for which the melting point amounted to 108 °C.

With `O=c1oc(=O)n(Cc2ccc(F)cc2)c2ccccc12`, the melting point lay within 142 to 145 °C.

Consider `FC1(N2CCOCC2)C=C(Cl)C=CC1NC(=S)C1C=CCCC1` (centres undefined), for which the melting point lay within 86 to 88 °C.

The compound `CC(=O)OCc1cn2c(n1)CN=C(c1ccccc1F)c1cc(Cl)ccc1-2` displayed a melting point of 134 to 136 °C.

For the compound `CCOCc1nc2c(N)nc(C)cc2n1NC(C)C`, the melting point is 139 to 141 °C.

For `CC(=O)N(C(C)=O)c1cscn1`, the melting point amounted to 55 °C.

`CC(=O)OCC1CCn2c(c(C3=C(c4cn(C)c5ccccc45)C(=O)OC3=O)c3ccccc32)C1` (centres undefined) came in with a melting point of 174 to 178 °C.

In the case of `CCCc1ccc(-c2ccn([C@H](CC(=O)O)C(=O)N[C@H](C(=O)NC)C(C)(C)C)c2)cc1`, the melting point was 104 to 106 °C.

In turn, `CCOC(=O)C(=NOC)c1nnc(C)s1` returned a melting point of 79 to 81 °C.

As to `Cc1ccc(OC2COc3ccc(OCc4ccc5cc(F)ccc5n4)cc3C2O)cn1` (centres undefined), the melting point lay in the range of 164 to 165 °C.

With `CCCNC(=O)C1(CCCCN2CCC(N3Cc4ccccc4C3=O)CC2)C(c2ccccc2)=Cc2ccccc21` (centres undefined), the melting point fell in the range of 156 to 157 °C.

As for `Cc1nccn1NCc1cc(C(C)(C)C)c(O)c(C(C)(C)C)c1`, the melting point was in the range of 181 to 182 °C.

For the compound `NCc1nc(-c2ncn3c2[C@@H]2CCN2C(=O)c2cc(F)ccc2-3)no1`, the melting point lay within 195 to 198 °C.

The compound `COc1cc(Cl)ccc1N(Cc1cccnc1)S(C)(=O)=O` yielded a melting point of 121 to 123 °C.

`CC(C)(C)c1ccc(OCCCCCCN2CCN(c3nccs3)CC2)cc1` yielded a melting point of 30 to 32 °C.

As to `CC(C)Oc1c(CO)cnc2c(C(F)(F)F)cccc12`, the melting point fell in the range of 73 to 74 °C.

In turn, `CCCOc1cnc(CN)cc1O` registered a melting point of 159 to 160 °C.

`OCCc1nccn1CCCc1ccc(OCc2coc(/C=C/c3c(F)cccc3F)n2)cc1`: the melting point is 106 to 107 °C.

As for `O=C1CCC(O)=C1Cc1ccc(Br)cc1`, the melting point is 199 to 201 °C.

As to `C=C(C)C(=O)Nc1cccc(OC(=O)NC(C)(C)CC(C)(C)C)c1`, the melting point lay within 118 to 120 °C.

For the compound `COC(=O)CCC(C)C1CCC2C3CCC4CC(N)CCC4(C)C3CC(=O)C12C` (centres undefined), the melting point fell in the range of 129 to 130 °C.

As for `COc1ccc(OCC2(Cc3c(C)[nH]c(=O)c(C(C)C)c3O)CC2)cc1`, the melting point lay in the range of 222 to 223 °C.

Consider `CCOC(=O)c1c(C)nn(-c2ccccn2)c1C`, for which the melting point was 49 to 50 °C.

Compound `CCOc1ccc2c(c1)C(=O)N(c1ccc3c(ccn3C)c1)C2` showed a melting point of 185 to 190 °C.

Consider `CCCN(c1ccncc1F)n1c(C)cc2ccccc21`, for which the melting point came to 5 °C.

`CCn1nc(-c2ccc(F)cc2)c(-c2ccncc2)c1C(=O)N(C)Cc1ccccn1`: the melting point is 144 to 147 °C.

The compound `Cc1cc(Cl)cc(C(=O)Nc2ccc(F)cn2)n1` displayed a melting point of 156 °C.

Consider `CC(C)n1nc(-c2c(-c3ccccc3)nn3ccc(C(=O)NCc4cccnc4)cc23)ccc1=O`, for which the melting point was 192 to 193 °C.

For `CC(C)NC(=O)N1CCc2[nH]cnc2C1c1cccnc1` (centres undefined), the melting point amounted to 237 °C.

Turning to `CCCOc1ccc(S(=O)(=O)N2CCN(CC)CC2)cc1-c1nc2cc(N)c([N+](=O)[O-])cc2c(=O)[nH]1`, the melting point lay in the range of 248 to 250 °C.

`CCCc1c(OCCC2Cc3cc(CC(=O)O)ccc3O2)ccc(C(C)=O)c1O` (centres undefined): the melting point was in the range of 118 to 126 °C.

In turn, `COc1cc2c(c(OC)c1)OC(C(F)(F)F)C(C(=O)O)=C2` (centres undefined) displayed a melting point of 215 to 217 °C.

Take `NS(=O)(=O)c1ccccc1C=CC(F)(F)F`: the melting point was in the range of 153 to 154 °C.

The compound `Cc1ccc2c(c1)C(c1ccccc1)=NCc1nnc(CN(C)C)n1-2` registered a melting point of 154 to 156 °C.

Consider `O=C(O)CCNC(=O)CCCCC1CCSS1` (centres undefined), for which the melting point was 74 to 76 °C.

Compound `O=C1CCN(Cc2ccccc2)CC1=C(c1ccccc1)c1ccccc1` had a melting point of 135 to 137 °C.

Regarding `O=C(CC(=O)Nc1ccc2c(c1)NC(=O)/C2=C\c1ccc[nH]1)Nc1ccc(F)cc1`, the melting point was greater than 300 °C.

Regarding `COCCNC(=NC#N)Nc1ccc(C2=NNC(=O)CC2C)cc1` (centres undefined), the melting point was in the range of 196 to 197 °C.

In turn, `CCOC(=O)C(C)(C(=O)OCC)c1cc(=O)n(Cc2ccccc2)c2ccccc12` gave a melting point of 130 to 131 °C.

Compound `NC(=O)c1ccc(OCCN(Cc2ccccc2)CC(O)c2ccc(OCc3ccccc3)c(OCc3ccccc3)c2)cc1` (centres undefined) yielded a melting point of 110 to 111 °C.

Turning to `COc1ccc2cccc(/C(CNC(C)=O)=N/O)c2c1`, the melting point lay within 136 to 138 °C.

`CS(=O)(=O)Nc1cc([C@@H](O)CNC2CCN(c3ccc(S(=O)(=O)N(CC(=O)O)CC(=O)O)cc3)CC2)ccc1O`: the melting point lay within 163 to 166 °C.

Turning to `CCCCCCCOc1ccc(-c2ncc(C#N)cn2)cc1`, the melting point is 102 °C.

As for `CC(C)(C)C(=O)NCc1cc(-c2ccc(Cl)c(Cl)c2)n(Cc2ccc(Cl)c(Cl)c2)n1`, the melting point stood at 56.5 °C.

`CCOC(=O)C(CO)NC(=O)C(N)(CC(=O)O)NC(=O)C(C)C` (centres undefined) yielded a melting point of 175 to 178 °C.

The compound `C=CC(=O)OCCCC#Cc1ccc(C(F)(F)Oc2ccc(OC(F)(F)c3ccc(C#CCCCOC(=O)C=C)cc3)c(C)c2)cc1` showed a melting point of 51 °C.

Regarding `CC1=C(C(=O)O)OCCO1`, the melting point was 103 to 105 °C.

The compound `CCc1c(C(=O)C(N)=O)c2c(NCC(=O)OC)cccc2n1Cc1ccccc1` registered a melting point of 188 to 193 °C.

Compound `O=C(Cc1ccccc1Nc1c(Cl)cccc1Cl)OCCOCCO[N+](=O)[O-]` displayed a melting point of 73 °C.

Regarding `CC1=NOCC1(C)S(=O)(=O)n1nc(Cl)nc1-c1ccccc1` (centres undefined), the melting point fell in the range of 70 to 74 °C.

Take `COC(=O)c1ccc(C(=O)NNC(=O)c2ccc(C(=O)OC)cc2)cc1`: the melting point lay in the range of 287 to 290 °C.

Compound `CC(C)(CO)c1cc2c(cc1Cl)C=C(C(=O)O)C(C(F)(F)F)O2` (centres undefined) gave a melting point of 204 to 205 °C.

`CCC(C)CCCC(C)C1CC(=O)C2(C(=O)O)C3=C(CCC12C)C1(C)CCC(O)CC1CC3` (centres undefined) showed a melting point of 195 to 196 °C.

`NC(=O)C1C=Cc2ccccc2N1C(=O)c1ccccc1` (centres undefined) displayed a melting point of 169 to 171 °C.

On to `O=C(O)Cc1c(C(=O)c2cccnc2)[nH]c2cc(Cl)ccc12`, for which the melting point was in the range of 267 to 268 °C.

In the case of `COc1ccc(N2CCOCC2)c2sc(NC(=O)N(C)[C@H]3CC[C@H](O)CC3)nc12`, the melting point is 158 to 162 °C.

As to `CC(C)Oc1c(C2=CC(C)(C)Oc3ccc(C#N)cc32)c(=O)c1=O`, the melting point lay in the range of 169 to 170 °C.

`O=C(C=Cc1ccccc1O)OCCc1ccccc1` came in with a melting point of 40 °C.

For `COc1ccc(CN(C)CCOc2ccc(NC(=O)c3cccc4c(=O)c5cccc(OC)c5[nH]c34)cc2)cc1OC`, the melting point turned out to be 184 °C.

In turn, `COc1ccc2c(CNCCCCCCCCCCC(=O)O)cc3cc4c(cc3c2c1)OCO4` displayed a melting point of 146 to 148 °C.

Take `C=C=COc1ccccc1S(N)(=O)=O`: the melting point was in the range of 94 to 95 °C.

For the compound `COC(=O)C(C)(Oc1ccc(-c2ccc(Cl)cc2)cc1)C(F)(F)F` (centres undefined), the melting point fell in the range of 87 to 88 °C.

Compound `O=C(O)c1cc(SCC(=O)c2ccccc2)cc(C(F)(F)F)c1` came in with a melting point of 135 to 150 °C.

`CCn1c(CO)nc(C(C)C)c1Sc1cc(C#N)cc(C#N)c1` had a melting point of 167 to 169 °C.

Regarding `CCSc1cn(C(C)C(=O)N(C)C)nc1-c1ccccc1` (centres undefined), the melting point is 70 to 72 °C.

With `C#CCc1c(C)nc2c(OCc3c(C)cccc3NC(=O)C(C)O)cccn12` (centres undefined), the melting point was 186 to 188 °C.
